Values after ≈ are worked out from the molar mass of the structure shown. Like-named read-outs stand apart in the source and are kept apart here.
Experiments:
butanologen = assay: Biocompatibility with a butanologen (discussion of examples); assay type: cell-based
[1] = system: genetically modified isobutanolagen yeast strain (PNY2141); assay type: cell-based; conditions: for Glucose, gpl Grams per Liter / OD: With solvent
[2] = Equilibrium moisture content of solvent; assay type: physicochemical; conditions: Table 1
Excerpt: The term “moisture content” as used herein refers to the equilibrium saturation of water contained by the solvent, whether or not product alcohol, e.g., isobutanol is present. At times the term “equilibrium” is used in conjunction with “moisture content” to indicate “moisture content” is related to a particular set of conditions, e.g., temperature, pressure, and so on. As will, be apparent, moisture content commonly refers to a maximum amount of water that can be dissolve by the solvent/solvent mixture given a certain set of conditions.
While the solvent mixture or portions thereof can be immiscible in water, e.g., on the order of 10^−7, in some instances one or more of the solvents can be comparatively weakly miscible in water. It is also to be appreciated, that water can be miscible (e.g., somewhat miscible) in the solvent mixture and/or miscible in one or more solvents included in the solvent mixture. COFA in some examples can absorb moisture, or water, such that the COFA is “wet”. A solvent's tendency to absorb moisture, e.g., act as a solvent, in some examples, can differ from that solvent's ability to solvate in water, e.g., its hydrophobicity. A table of various solvents and their respective characteristics is reproduced directly below.

[3] = Isobutanol partitioning between solvent and water (Kd, butanol partition coefficient)
[4] = system: genetically modified isobutanolagen yeast strain PNY2310; assay type: cell-based; conditions: for Glucose: Example 9, With Solvent
[5] = system: genetically modified isobutanologen yeast strain; assay: Biocompatibility shake flask, OD and glucose (Examples 2, 3); assay type: cell-based; conditions: for Glucose / OD: Example 3, With Solvent
Sacchromyces Cerevisiae = conditions: in vitro; Bennis et al. 2004; cited from earlier work
ethanol red yeast strain = assay: Biocompatibility shake flask, glucose (Example 12); assay type: cell-based
[6] = system: naturally occurring ethanologen yeast strain; assay: Biocompatibility shake flask, glucose uptake (Example 1A); assay type: cell-based; conditions: 32° C.
[7] = aqueous 2.0 wt % isobutanol, half its mass of solvent
[8] = aqueous 2.0 wt % isobutanol, half its mass of solvent (5 g/2.5 g or 1 g/0.5 g), HPLC
[9] = 10 ml aqueous 6 wt % isobutanol + 1 ml solvent
[10] = 10 ml aqueous 6 wt % isobutanol + 1 ml solvent, gas chromatography
[11] = aqueous 2.0 wt % isobutanol, equal mass of solvent
[12] = aqueous 2.0 wt % isobutanol, equal mass of solvent (3 g/3 g or 5 g/5 g), HPLC
[13] = time 0 hr, 10 ml solvent on 20 ml medium, 32° C.

CC(C)c1cccc(C(C)C)c1 [1,3-diisopropylbenzene]
biocompatibility with a butanologen (found in testing) (butanologen): not to be biocompatible
consumption of glucose in presence of solvent ([1]; Example 6A): No significant consumption of glucose
Glucose (grams per liter, gpl) ([1]; Example 6A, time 0 hours, 1.0 OD PNY2141, 10 ml solvent on 20 ml medium, 32° C.): 30 gpl
Glucose (grams per liter, gpl) ([1]; Example 6A, time 6 hours): 30 gpl
Glucose (grams per liter, gpl) ([1]; Example 6A, time 11 hours): 30 gpl
Glucose (grams per liter, gpl) ([1]; Example 6A, time 16 hours): 28 gpl
Glucose (grams per liter, gpl) ([1]; Example 6A, time 24 hours): 29 gpl

CCCCC(CC)CO (stereo not drawn) [2-ethylhexanol]
Moisture Content (wt %) [2]: 2 wt %

Cc1ccc(C(C)C)cc1O [Carvacrol, carvacrol]
isobutanol in organic layer, calculated by mass balance [3, 7]: 3.42 wt %
mass partitioning coefficient [3, 7]: 15.5
isobutanol in aqueous layer [3, 8]: 0.22 wt %
Moisture Content (wt %) [2]: 2 wt %

CCN(CC)C(=O)c1cccc(C)c1 [DEET, diethyl m-toluamide]
isobutanol in organic layer, calculated by mass balance [3, 7]: 3.17 wt %
mass partitioning coefficient [3, 7]: 9.2
isobutanol in aqueous layer [3, 8]: 0.34 wt %

CC(C)CC(C)CC(O)CC(C)C (stereo not drawn) [Isododecanol]
isobutanol in organic layer, calculated by mass balance [3, 7]: 2.87 wt %
mass partitioning coefficient [3, 7]: 5.42
isobutanol in aqueous layer [3, 8]: 0.53 wt %
Moisture Content (wt %) [2]: 0.2 wt %

CC(CC(C)(C)C)CC(C)(C)CC(C)(C)C (stereo not drawn) [Isohexadecane, 2,2,4,4,6,8,8-heptamethylnonane]
Moisture Content (wt %) [2]: <0.01 wt %

CCCCN(CCCC)C(=O)N(CCCC)CCCC [Tetrabutylurea, tetrabutylurea]
glucose concentration versus flask without solvent ([4]; Example 9): No significant difference
Glucose ([4]; time 0 hr, 0.5 OD PNY2310, 10 ml solvent on 20 ml medium, 32° C.): 28 g/L
Glucose ([4]; time 4 hr): 25 g/L
Glucose ([4]; time 8 hr): 14 g/L
Glucose ([4]; time 12 hr): 0 g/L
biocompatibility with a butanologen (found in testing) (butanologen): biocompatible with a butanologen
isobutanol in organic layer, calculated by mass balance [3, 7]: 3.06 wt %
mass partitioning coefficient [3, 7]: 7.35
isobutanol in aqueous layer [3, 8]: 0.417 wt %
Moisture Content (wt %) [2]: 0.9 wt %

CC(CC(C)(C)C)CC(C)(C)C [isododecane, 2,2,4,6,6-pentamethylheptane]
growth (glucose uptake and OD) versus flask without solvent ([5]; Example 3): No significant difference in growth
Glucose ([5]; time 0 hr): 32 g/L
OD ([5]; time 0 hr, 32 g/liter glucose, 10 ml solvent on 20 ml medium, 32° C.): 0.5
Glucose ([5]; time 7 hr): 32 g/L
OD ([5]; time 7 hr): 0.9
Glucose ([5]; time 13 hr): 25 g/L
OD ([5]; time 13 hr): 1.6
Glucose ([5]; time 23 hr): 5 g/L
OD ([5]; time 23 hr): 4.9
Glucose ([5]; time 29 hr): 0.1 g/L
OD ([5]; time 29 hr): 5.0
biocompatibility with a butanologen (found in testing) (butanologen): biocompatible with a butanologen
isobutanol in aqueous layer [3, 9]: 1.39 mole %
isobutanol in organic layer [3, 9]: 17.24 mole %
mass partitioning coefficient [3, 9]: 1.525
molar partitioning coefficient [3, 9]: 12.4
isobutanol in aqueous layer [3, 10]: 5.45 wt %
isobutanol in organic layer [3, 10]: 8.31 wt %
isobutanol in organic layer, calculated by mass balance [3, 11]: 0.40 wt %
mass partitioning coefficient [3, 11]: 0.25
isobutanol in aqueous layer [3, 12]: 1.60 wt %
Moisture Content (wt %) [2]: <0.01 wt %

Cc1ccc(C(C)C)c(O)c1 [thymol]
MFC (minimum fungal concentration) (Sacchromyces Cerevisiae): 1800 µM (≈ 270 µg/mL)
MIC, minimum inhibitory concentration (Sacchromyces Cerevisiae): 1500 µM (≈ 225 µg/mL)

CCCCC(CC)COP(=O)(OCC(CC)CCCC)OCC(CC)CCCC (stereo not drawn) [tris(2-ethylhexyl) phosphate]
inhibition in glucose consumption (ethanol red yeast strain; Example 12): No significant inhibition in glucose consumption
Glucose (grams per liter, gpl) (ethanol red yeast strain; time 0 hours, 1.1 OD, 10 ml solvent on 20 ml medium, 32° C.): 17 gpl
Glucose (grams per liter, gpl) (ethanol red yeast strain; time 5 hours): 0 gpl
Glucose (grams per liter, gpl) (ethanol red yeast strain; time […]): 11.5 gpl

triisobutylene
growth (OD and glucose) versus flask without solvent ([1]; Example 1B, PNY2141, 32° C.): Some impedance to growth
Glucose, gpl Grams per Liter [1, 13]: 28 gpl
OD [1, 13]: 0.5
Glucose, gpl Grams per Liter ([1]; time 6 hr): 27 gpl
OD ([1]; time 6 hr): 0.6
Glucose, gpl Grams per Liter ([1]; time 10 hr): 26 gpl
OD ([1]; time 10 hr): 0.8
Glucose, gpl Grams per Liter ([1]; time 19 hr): 22 gpl
OD ([1]; time 19 hr): 1.6
Glucose, gpl Grams per Liter ([1]; time 23 hr): 21 gpl
OD ([1]; time 23 hr): 2.1
Glucose, gpl Grams per Liter ([1]; time 30 hr): 14 gpl
OD ([1]; time 30 hr): 2.8
Glucose, gpl Grams per Liter ([1]; time 35 hr): 10 gpl
OD ([1]; time 35 hr): 3.4
isobutanol in aqueous layer [3, 9]: 1.33 mole %
isobutanol in organic layer [3, 9]: 18.39 mole %
mass partitioning coefficient [3, 9]: 1.71
molar partitioning coefficient [3, 9]: 13.8
isobutanol in aqueous layer [3, 10]: 5.28 wt %
isobutanol in organic layer [3, 10]: 9.03 wt %
isobutanol in organic layer, calculated by mass balance [3, 11]: 0.47 wt %
mass partitioning coefficient [3, 11]: 0.31
isobutanol in aqueous layer [3, 12]: 1.53 wt %
glucose uptake versus flask without solvent ([6]; 4 hours): No significant difference in glucose uptake
glucose in aqueous phase ([6]; after 4 hours, start 21 g/liter glucose, 0.5 OD, 10 ml solvent on 20 ml medium): less than 0.1 g/liter
